Data on 2 compounds can be found in patent US20140370129A1, “DOSING REGIMEN AND METHOD FOR TREATING CANCER USING A COIX SEED OIL EMULSION” (Zhejiang Kanglaite Group Co., Ltd., priority 2013, published 2014).

Molecules are shown by their SMILES.

Test [1] concerns advanced or metastatic adenocarcinoma of the pancreas. Particulars: first-line therapy; P=0.003; cited from earlier work.
For test [2], the system named is pancreatic cancer. Particulars: human, in vivo; cited from earlier work.
Test [3] concerns metastatic pancreatic adenocarcinoma. Particulars: not previously treated with chemotherapy; cited from earlier work.
In test [4] the test system is advanced or metastatic pancreatic carcinomas. The settings on record: erlotinib versus placebo, with gemcitabine; cited from earlier work.
The test system of test [5] is locally advanced or metastatic pancreatic cancer. The test is described as follows: Phase 2b study of Kanglaite Injection plus gemcitabine vs gemcitabine alone. In kind it is in vivo. The text has this:
Efficacy of the treatment may be monitored, for example, by CT scans of the patients to determine growth or progression of the tumor, or Karnofsky performance. The Karnofsky Performance Scale Index allows patients to be classified on a scale of 0 to 100 as to their functional impairment, with zero indicating death and 100 indicating no patient complaints and no evidence of disease. The primary efficacy outcome measure for the efficacy trial described in Example 2 was Progression Free Survival (PFS). PFS includes patient deaths and assumes that death is related to progression of cancer, a reasonable assumption with pancreatic cancer. PFS is defined as the time interval from randomization to objective tumor progression or death.
As shown in Example 2, efficacy of the treatment was evaluated in part using RECIST 1.1 RECIST refers to the Response Evaluation Criteria for Solid Tumors assessment tool an involves measuring tumors (lesions) in patient using, for example, CT or MRI. As noted above, RECIST Version 1.1 was utilized in evaluating patient responses.
A phase 2b, multi-center, randomized, open-label clinical trial compared the effect of gemcitabine in combination with KLTi to gemcitabine alone in patients with locally advanced or metastatic pancreatic cancer, not amenable to curative surgical resection.
A total of 41 patients were randomized to Cohort 1 with 38 included in the safety population, specifying all patients who received at least one dose of study drug. Thirty-seven of the 38 patients had been diagnosed as having Stage IV pancreatic cancer. Twenty-six patients were assigned to Group 1 to receive both KLTi and gemcitabine while 12 patients were assigned to Group 2 to receive only gemcitabine.
All patients received marketed gemcitabine, which was administered at 1000 mg/m^2 over a minimum of 30 min and a maximum of 38 min once weekly for 3 weeks, followed by a rest period of 13 days before the next gemcitabine dose. Based on a chemotherapy cycle of 28 days (4 weeks), gemcitabine was given on Days 1, 8, and 15 of the 28-day cycle. For patients in Group 1, KLTi infusion was administered on each of Days 1-5 for each of those same 3 weeks (i.e., Days 1-5, Days 8-12 and Days 15-19). Patients were then rested for the remaining 9 days of the cycle (Days 20-28).
Dosing of Group 1 patients included administration of KLTi at a dose of 30 g/day provided as a 300 mL volume. For the first 2 KLTi infusions for each patient, the infusion rate was started at 1.0 mL/min for the first 15 min, and then increased to 150 mL/hr until the KLTi was completely infused if no safety issues were apparent. Once safety was established in the first 2 infusions, all subsequent KLTi infusions were given at a target rate of 150 m L/hr. Beginning with cycle 2, the target rate of infusion may, however, have been increased to […]. The total infusion time for 300 mL of KLTi was therefore expected to be approximately 2 hr for Cycle 1 and approximately 90 min for all remaining cycles.
Progression Free Survival (PFS) was calculated from the date of randomization to the date of objective disease progression or death. Patients without objective disease progression or death were censored at their last evaluable tumor assessment. […] This significant increase in PFS in Group 1 as compared to Group 2 is indicative of the significant advantage of administering KLTi in combination to gemcidabine as compared to administering gemcidabine alone to treat pancreatic cancer.

Where [6] appears, read: RECIST 1.1, Efficacy Evaluable Population, n (%).
Setting [7] is: RECIST 1.1, Intent To Treat Population, n (%).

With `O=c1[nH]cc(F)c(=O)[nH]1` [5-FU, fluorouracil], the 1-year survival in test [1] is 2%.

Consider `Nc1ccn([C@@H]2O[C@H](CO)[C@@H](O)C2(F)F)c(=O)n1` [Gemcidabine, gemcitabine], for which, in test [2], the “alive at the end of the first year” value is on record as 22%. The median overall survival in test [3] is given as 6.8 months. Moreover, in test [4], the 1-year survival rate is reported as 17% and the median survival is 5.9 months. Further, in test [1], the 1-year survival is given as 18%. Besides, in test [5] (1 month), the “PFS Rate 1 month” value is on record as 75%. Also, the “PFS Rate 1 year” value in test [5] (1 year) was determined as 8.3%. The “PFS Rate 3 months” value in test [5] (3 months) came to 25%. For the same compound, the “PFS Rate 4 months” value in test [5] (4 months) turned out to be 25%. In test [5] (6 months), the “PFS Rate 6 months” value came out at 8.3%. Moreover, the “Median PFS” value in test [5] (Progression Free Survival, randomization to objective progression or death, KLTi 30 g/day IV Days 1-5, 8-12, 15-19 with gemcitabine 1000 mg/m^2 Days 1, 8, 15 of 28-day cycle) amounted to 57.5 days. In test [5] (setting [6]), the “CR + PR (%)” value is 1 (11.1%), the “Complete Response (CR)” value is recorded as 0 (0%), the “Partial Response (PR)” value is 1 (11.1%) and the “Progressive Disease (PD)” value is given as 6 (66.7%). In test [5] (setting [7]), the “Complete Response (CR)” value is 0 (0%), the “Partial Response (PR)” value is recorded as 1 (7.7%) and the “Progressive Disease (PD)” value was 6 (46.2%).
